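Dose response: 5 concentrations. Exposure: 48 h. Format: 96-well plates. Endpoint: linear interpolation; highest concentration if not reached. TGI marks complete inhibition of growth.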
Experiments:
Experiment in all cases: NCI anticancer screen, dose series, 48 h
786-0 renal = test system: 786-0 renal
A498 renal = test system: A498 renal
A549 NSCLC = test system: A549 NSCLC
ACHN renal = test system: ACHN renal
CCRF-CEM leukemia = test system: CCRF-CEM leukemia
COLO 205 colon = test system: COLO 205 colon
DU-145 prostate = test system: DU-145 prostate
EKVX NSCLC = test system: EKVX NSCLC
HCT-116 colon = test system: HCT-116 colon
HCT-15 colon = test system: HCT-15 colon
HL-60(TB) leukemia = test system: HL-60(TB) leukemia
HOP-62 NSCLC = test system: HOP-62 NSCLC
HOP-92 NSCLC = test system: HOP-92 NSCLC
HS 578T breast = test system: HS 578T breast
HT29 colon = test system: HT29 colon
IGROV1 ovarian = test system: IGROV1 ovarian
K-562 leukemia = test system: K-562 leukemia
KM12 colon = test system: KM12 colon
LOX IMVI melanoma = test system: LOX IMVI melanoma
M14 melanoma = test system: M14 melanoma
MALME-3M melanoma = test system: MALME-3M melanoma
MCF7 breast = test system: MCF7 breast
MDA-MB-231 breast = test system: MDA-MB-231 breast
MDA-MB-435 = test system: MDA-MB-435
MDA-N = test system: MDA-N
MOLT-4 leukemia = test system: MOLT-4 leukemia
NCI-H226 lung = test system: NCI-H226 lung
NCI-H23 lung = test system: NCI-H23 lung
NCI-H460 lung = test system: NCI-H460 lung
NCI/ADR-RES ovarian = test system: NCI/ADR-RES ovarian
OVCAR-3 ovarian = test system: OVCAR-3 ovarian
OVCAR-4 ovarian = test system: OVCAR-4 ovarian
OVCAR-5 ovarian = test system: OVCAR-5 ovarian
OVCAR-8 ovarian = test system: OVCAR-8 ovarian
PC-3 prostate = test system: PC-3 prostate
RPMI-8226 leukemia = test system: RPMI-8226 leukemia
RXF 393 renal = test system: RXF 393 renal
SF-268 CNS = test system: SF-268 CNS
SF-295 CNS = test system: SF-295 CNS
SF-539 CNS = test system: SF-539 CNS
SK-MEL-2 melanoma = test system: SK-MEL-2 melanoma
SK-MEL-28 melanoma = test system: SK-MEL-28 melanoma
SK-MEL-5 melanoma = test system: SK-MEL-5 melanoma
SK-OV-3 ovarian = test system: SK-OV-3 ovarian
SN12C renal = test system: SN12C renal
SNB-19 CNS = test system: SNB-19 CNS
SNB-75 CNS = test system: SNB-75 CNS
SR leukemia = test system: SR leukemia
SW-620 colon = test system: SW-620 colon
T-47D breast = test system: T-47D breast
TK-10 renal = test system: TK-10 renal
U251 CNS = test system: U251 CNS
UACC-257 melanoma = test system: UACC-257 melanoma
UACC-62 melanoma = test system: UACC-62 melanoma
UO-31 renal = test system: UO-31 renal
BT-549 breast = test system: BT-549 breast
CAKI-1 renal = test system: CAKI-1 renal
NCI-H522 lung = test system: NCI-H522 lung
HCC-2998 colon = test system: HCC-2998 colon

Work on `O=S(=O)(/N=S(/Nc1ccccc1)C(F)(F)Cl)c1ccccc1` (configuration not stated) yielded a TGI (786-0 renal) greater than 100 µM, a TGI (A498 renal) greater than 100 µM and a TGI (A549 NSCLC) greater than 100 µM. The TGI (ACHN renal) was greater than 100 µM, the TGI (CCRF-CEM leukemia) was greater than 100 µM and the TGI (COLO 205 colon) was greater than 100 µM. The TGI (DU-145 prostate) was greater than 100 µM, the TGI (EKVX NSCLC) was greater than 100 µM and the TGI (HCT-116 colon) was greater than 100 µM. It also gave a TGI (HCT-15 colon) greater than 100 µM, a TGI (HL-60(TB) leukemia) greater than 100 µM and a TGI (HOP-62 NSCLC) greater than 100 µM. The TGI (HOP-92 NSCLC) was greater than 100 µM, the TGI (HS 578T breast) was greater than 100 µM and the TGI (HT29 colon) was greater than 100 µM. For the same compound, the TGI (IGROV1 ovarian) was greater than 100 µM, the TGI (K-562 leukemia) was greater than 100 µM and the TGI (KM12 colon) was greater than 100 µM. For the same compound, the TGI (LOX IMVI melanoma) was greater than 100 µM, the TGI (M14 melanoma) was greater than 100 µM and the TGI (MALME-3M melanoma) was greater than 100 µM. It also gave a TGI (MCF7 breast) greater than 100 µM, a TGI (MDA-MB-231 breast) greater than 100 µM and a TGI (MDA-MB-435) greater than 100 µM. It also gave a TGI (MDA-N) greater than 100 µM, a TGI (MOLT-4 leukemia) greater than 100 µM and a TGI (NCI-H226 lung) greater than 100 µM. The TGI (NCI-H23 lung) was greater than 100 µM, the TGI (NCI-H460 lung) was greater than 100 µM and the TGI (NCI/ADR-RES ovarian) was greater than 100 µM. The TGI (OVCAR-3 ovarian) was greater than 100 µM, the TGI (OVCAR-4 ovarian) was greater than 100 µM and the TGI (OVCAR-5 ovarian) was greater than 100 µM. For the same compound, the TGI (OVCAR-8 ovarian) was greater than 100 µM, the TGI (PC-3 prostate) was greater than 100 µM and the TGI (RPMI-8226 leukemia) was greater than 100 µM. For the same compound, the TGI (RXF 393 renal) was greater than 100 µM, the TGI (SF-268 CNS) was greater than 100 µM and the TGI (SF-295 CNS) was greater than 100 µM. It also gave a TGI (SF-539 CNS) greater than 100 µM, a TGI (SK-MEL-2 melanoma) greater than 100 µM and a TGI (SK-MEL-28 melanoma) greater than 100 µM. The TGI (SK-MEL-5 melanoma) was greater than 100 µM, the TGI (SK-OV-3 ovarian) was greater than 100 µM and the TGI (SN12C renal) was greater than 100 µM. It also gave a TGI (SNB-19 CNS) greater than 100 µM, a TGI (SNB-75 CNS) greater than 100 µM and a TGI (SR leukemia) greater than 100 µM. It also gave a TGI (SW-620 colon) greater than 100 µM, a TGI (T-47D breast) greater than 100 µM and a TGI (TK-10 renal) greater than 100 µM. The TGI (U251 CNS) was greater than 100 µM, the TGI (UACC-257 melanoma) was greater than 100 µM and the TGI (UACC-62 melanoma) was greater than 100 µM. It also gave a TGI (UO-31 renal) greater than 100 µM.

For `O=Nc1c(-c2c(O)[nH]c3ccc(I)cc23)[nH]c2ccccc12`, the TGI (786-0 renal) was greater than 35.1 µM, the TGI (A498 renal) was greater than 27.6 µM and the TGI (A549 NSCLC) was greater than 30.4 µM. It also gave a TGI (ACHN renal) greater than 21.4 µM, a TGI (BT-549 breast) greater than 59.3 µM and a TGI (CAKI-1 renal) greater than 100 µM. For the same compound, the TGI (CCRF-CEM leukemia) was 5.07 µM, the TGI (COLO 205 colon) was greater than 100 µM and the TGI (DU-145 prostate) was greater than 24.6 µM. It also gave a TGI (EKVX NSCLC) greater than 69.7 µM, a TGI (HCT-15 colon) greater than 39.9 µM and a TGI (HL-60(TB) leukemia) of 6.96 µM. For the same compound, the TGI (HOP-62 NSCLC) was greater than 30.8 µM, the TGI (HOP-92 NSCLC) was greater than 27.7 µM and the TGI (HS 578T breast) was greater than 29.8 µM. For the same compound, the TGI (HT29 colon) was greater than 21.6 µM, the TGI (IGROV1 ovarian) was 8.51 µM and the TGI (LOX IMVI melanoma) was greater than 24.5 µM. It also gave a TGI (M14 melanoma) greater than 100 µM, a TGI (MALME-3M melanoma) greater than 32.7 µM and a TGI (MCF7 breast) greater than 19.9 µM. For the same compound, the TGI (MDA-MB-231 breast) was 9.77 µM, the TGI (MDA-MB-435) was greater than 100 µM and the TGI (MDA-N) was 47.2 µM. For the same compound, the TGI (NCI-H23 lung) was greater than 100 µM, the TGI (NCI-H460 lung) was greater than 47.4 µM and the TGI (NCI-H522 lung) was greater than 26.1 µM. For the same compound, the TGI (NCI/ADR-RES ovarian) was greater than 63.4 µM, the TGI (OVCAR-3 ovarian) was greater than 57.3 µM and the TGI (OVCAR-4 ovarian) was 14.8 µM. For the same compound, the TGI (OVCAR-5 ovarian) was greater than 27.1 µM, the TGI (OVCAR-8 ovarian) was greater than 43.4 µM and the TGI (PC-3 prostate) was greater than 27.9 µM. It also gave a TGI (RPMI-8226 leukemia) of 4.67 µM, a TGI (RXF 393 renal) of 3.81 µM and a TGI (SF-268 CNS) of 25.9 µM. It also gave a TGI (SF-295 CNS) greater than 71.7 µM, a TGI (SF-539 CNS) of 81.5 µM and a TGI (SK-MEL-2 melanoma) of 4.93 µM. The TGI (SK-MEL-28 melanoma) was greater than 100 µM, the TGI (SK-MEL-5 melanoma) was greater than 100 µM and the TGI (SK-OV-3 ovarian) was greater than 35 µM. For the same compound, the TGI (SN12C renal) was 17.9 µM, the TGI (SNB-19 CNS) was greater than 62.1 µM and the TGI (SNB-75 CNS) was 20.7 µM. For the same compound, the TGI (T-47D breast) was greater than 69.8 µM, the TGI (TK-10 renal) was greater than 41.5 µM and the TGI (U251 CNS) was greater than 40.9 µM. It also gave a TGI (UACC-257 melanoma) greater than 100 µM, a TGI (UACC-62 melanoma) of 4.45 µM and a TGI (UO-31 renal) of 5.43 µM.

`C=C(Br)C[N+]12CN3CN(CN(C3)C1)C2` showed a TGI (786-0 renal) greater than 100 µM, a TGI (A498 renal) greater than 100 µM and a TGI (A549 NSCLC) greater than 100 µM. The TGI (ACHN renal) was greater than 100 µM, the TGI (CAKI-1 renal) was greater than 100 µM and the TGI (CCRF-CEM leukemia) was greater than 100 µM. It also gave a TGI (COLO 205 colon) greater than 100 µM, a TGI (DU-145 prostate) greater than 100 µM and a TGI (EKVX NSCLC) greater than 100 µM. For the same compound, the TGI (HCC-2998 colon) was greater than 100 µM, the TGI (HCT-116 colon) was greater than 100 µM and the TGI (HCT-15 colon) was greater than 100 µM. For the same compound, the TGI (HL-60(TB) leukemia) was greater than 100 µM, the TGI (HOP-62 NSCLC) was greater than 100 µM and the TGI (HOP-92 NSCLC) was greater than 100 µM. For the same compound, the TGI (HS 578T breast) was greater than 100 µM, the TGI (HT29 colon) was greater than 100 µM and the TGI (IGROV1 ovarian) was greater than 100 µM. It also gave a TGI (K-562 leukemia) greater than 100 µM, a TGI (KM12 colon) greater than 100 µM and a TGI (LOX IMVI melanoma) greater than 100 µM. For the same compound, the TGI (M14 melanoma) was greater than 100 µM, the TGI (MALME-3M melanoma) was greater than 100 µM and the TGI (MDA-MB-231 breast) was greater than 100 µM. For the same compound, the TGI (MDA-MB-435) was greater than 100 µM, the TGI (MDA-N) was greater than 100 µM and the TGI (MOLT-4 leukemia) was greater than 100 µM. The TGI (NCI-H226 lung) was greater than 100 µM, the TGI (NCI-H23 lung) was greater than 100 µM and the TGI (NCI-H460 lung) was greater than 100 µM. It also gave a TGI (NCI-H522 lung) greater than 100 µM, a TGI (NCI/ADR-RES ovarian) greater than 100 µM and a TGI (OVCAR-3 ovarian) greater than 100 µM. For the same compound, the TGI (OVCAR-4 ovarian) was greater than 100 µM, the TGI (OVCAR-5 ovarian) was greater than 100 µM and the TGI (OVCAR-8 ovarian) was greater than 100 µM. It also gave a TGI (PC-3 prostate) greater than 100 µM, a TGI (RPMI-8226 leukemia) greater than 100 µM and a TGI (RXF 393 renal) greater than 100 µM. For the same compound, the TGI (SF-268 CNS) was greater than 100 µM, the TGI (SF-295 CNS) was greater than 100 µM and the TGI (SF-539 CNS) was greater than 100 µM. The TGI (SK-MEL-2 melanoma) was greater than 100 µM, the TGI (SK-MEL-28 melanoma) was greater than 100 µM and the TGI (SK-MEL-5 melanoma) was greater than 100 µM. For the same compound, the TGI (SK-OV-3 ovarian) was greater than 100 µM, the TGI (SN12C renal) was greater than 100 µM and the TGI (SNB-19 CNS) was greater than 100 µM. For the same compound, the TGI (SNB-75 CNS) was greater than 100 µM, the TGI (SR leukemia) was greater than 100 µM and the TGI (SW-620 colon) was greater than 100 µM. It also gave a TGI (T-47D breast) greater than 100 µM, a TGI (U251 CNS) greater than 100 µM and a TGI (UACC-257 melanoma) greater than 100 µM. The TGI (UACC-62 melanoma) was greater than 100 µM and the TGI (UO-31 renal) was greater than 100 µM.

From PubChem BioAssay (NCI)
